Two molecules from patent EP4722246A1, “TEM8-TARGETED ANTIBODY OR ANTIGEN-BINDING FRAGMENT THEREOF, AND USE THEREOF” (Inxmed (Nanjing) Co., Ltd., priority 2023, dated 2024) can be followed below.

In this experiment the test system is HCT116. Put plainly: ADC in vitro cell killing assay (CCK-8). The note with it: HCT116, 72 h. The class given is cell-based, human. The procedure:
HCT116 (Cat: CBP60028, Cobioer Biosciences Co., Ltd.) in the logarithmic growth phase was trypsinized, plated in a 96-well plate at 3000 cells/well in 100 µL, and the plate was incubated in a 37°C, 5% CO2 incubator for 24 h. ADC was subjected to a 5-fold serial dilution with cell culture medium (Ham's F-12K, 10% FBS, AusGenex, Cat:FBS500-S) starting from 30000nM, yielding 10 concentration gradients. 10 µL of the diluted sample was added to the cell plate for mixing well, and the plate was incubated in a 37°C, 5% CO2 incubator for 72 h. 10 µL of Cell Counting Kit-8 (CellorLab, CX001) was added to the plate, and the plate was incubated in a 37 °C, 5% CO2 constant temperature incubator for 3 h. The absorbance value at 450 nm was measured with a microplate reader. Data was analyzed with Graphpad, with the in vitro killing activity of TEM8 antibody-drug conjugate shown in Table 5 and the IC50 curve shown in FIG. 4. Table 5: In vitro killing activity of TEM8 antibody-drug conjugate or linker + payload or payload

Starred links: 1 amine or outer side, 2 acyl side, 3 side chain; linkers in the order of their positions; H or OH if unused. Non-standard residues stand in square brackets, D forms with d. Residues, ends and D or L forms follow the SMILES beside them. *: point of attachment. Dolaproine = CO[C@@H]([C@@H]1CCCN1)[C@@H](C)C(=O)O; Hexanoyl(6-maleimido) = O=C1C=CC(=O)N1CCCCCC(=O)*; Dil = CC[C@H](C)[C@H](NC)[C@@H](CC(=O)O)OC; PABC = O=C(OCc1ccc(N[*:1])cc1)[*:2]; X1 = C[C@@H](N*)[C@@H](O)c1ccccc1; Cit = NC(=O)NCCC[C@H](N)C(=O)O; NMeV = CN[C@H](C(=O)O)C(C)C

In the case of `CC[C@H](C)[C@@H]([C@@H](CC(=O)N1CCC[C@H]1[C@H](OC)[C@@H](C)C(=O)N[C@H](C)[C@@H](O)c1ccccc1)OC)N(C)C(=O)[C@@H](NC(=O)[C@H](C(C)C)N(C)C(=O)OCc1ccc(NC(=O)[C@H](CCCNC(N)=O)NC(=O)[C@@H](NC(=O)CCCCCN2C(=O)C=CC2=O)C(C)C)cc1)C(C)C` [VcMMAE] ({Hexanoyl(6-maleimido)}-V[Cit][PABC][NMeV]V[Dil][Dolaproine]-X1), the IC50 was found to be 1280 nM. Consider `CC[C@H](C)[C@@H]([C@@H](CC(=O)N1CCC[C@H]1[C@H](OC)[C@@H](C)C(=O)N[C@H](C)[C@@H](O)c1ccccc1)OC)N(C)C(=O)[C@@H](NC(=O)[C@@H](NC)C(C)C)C(C)C` [MMAE] (H-[NMeV]V[Dil][Dolaproine]-X1), for which inhibition was half-maximal at 14.8 nM (IC50).

Usually IC50 stands for the concentration that inhibits the measured activity by half.
